{
  "source": "paper PMC8175240",
  "about": "“Integrase-derived peptides together with CD24-targeted lentiviral particles inhibit the growth of CD24 expressing cancer cells” (Oncogene, 2021)",
  "key": {"CHO-WBL cells": {"system": "CHO-WBL cells", "assay": "Chromosomal aberration assay (genotoxicity)", "type": "cell-based, Chinese hamster", "conditions": "CP 2.5, +S9, 3 h treatment, harvest 22 h", "procedure": "All cells were cultured for 22 h after initiation of INS treatment."}, "[1]": {"assay": "Solubility of IN-derived peptides in PBS", "type": "physicochemical", "conditions": "for Solubility: at 0 min, verified at 60 min, LC-MS", "procedure": "(§1) Analytic HPLC-MS was performed using an Agilent 1260 series Liquid Chromatography/Mass Selective Detector (MSD) equipped with an electrospray interface and a UV diode array detector. Analyses were performed on an ACE C8, 50 × 3.0 mm, 3 µm column, with an isocratic 0.1% formic acid/ACN eluent, at a rate of 1 ml/min over a period of 5 min. UV absorption was measured at 280 nm, 220 nm, and 215–395 nm. MS analysis was performed with ESI (electron spray ionization) with a positive ionization method.\n(§2) Four reaction systems were prepared; INS and INR2 in human plasma, INS and INR2 in rat plasma (Supplementary Table 2). Freshly prepared 10 mg/ml stock solution of the peptides was injected into plasma or PBS solution (1:1). The mixture was diluted with methanol to precipitate the plasma proteins. The samples were filtered through PTFE 0.45 µm filters and run in LC-MS. Samples were taken at the following times: 0, 15, 30, 60, 120, 240, and 480 min and after 24 h.\n(§3) Plasma solubility was determined at 0 min and was verified at 60 min (if no degradation was observed)."}, "[2]": {"assay": "Stability test in human plasma", "type": "in vitro ADME", "conditions": "for Analyte Remaining % / Concentration calculated from LC-MS data: human plasma, 10 mg/ml stock into plasma 1:1, LC-MS; for Concentration calculated from LC-MS data: methanol precipitation, 0.45 µm filtration", "procedure": "as §1, §2"}, "[3]": {"assay": "Solubility of IN-derived peptides in rat plasma", "type": "physicochemical", "conditions": "LC-MS", "procedure": "as §1, §2, §3"}, "[4]": {"assay": "Stability test in rat plasma", "type": "in vitro ADME", "conditions": "for Analyte Remaining %: 10 mg/ml stock into plasma 1:1, LC-MS; for Concentration calculated from LC-MS data: 10 mg/ml stock into plasma 1:1, methanol precipitation, 0.45 µm filtration", "procedure": "as §1, §2"}, "[5]": {"assay": "Solubility of IN-derived peptides in human plasma", "type": "physicochemical", "conditions": "LC-MS", "procedure": "as §1, §2, §3"}, "H1975 lung cancer cells [6]": {"system": "H1975 lung cancer cells", "assay": "Cytotoxicity of peptides without lentiviral particles, MTT", "type": "cell-based, human", "conditions": "peptide alone, three times over ten days", "procedure": "H1975 lung cancer cells were treated three times over the course of 10 days (on days 2, 4, and 7) with different concentrations of the tested peptides. Following ten days of incubation, cells were analyzed for potential toxicity using a quantitative cell viability test, the MTT assay."}, "H1975 cells": {"system": "H1975 cells", "assay": "Cell survival after CD24-targeted lentivirus plus peptide, MTT", "type": "cell-based, human", "conditions": "Raltegravir added to LV-CD24 plus INS or INR2", "procedure": "(§4) The cell-killing effect of the system was measured by the MTT3-(4,5-dimethylthiazol-2-yl)-2,5-diphenyltetrazoliumenzymatic assay or by 2-(4-iodophenyl)-3-(4-nitrophenyl)-5-(2,4-disulfophenyl)-2H-tetrazolium (WST-1) assay. Two thousand cultured cells were seeded onto 96-well plates (in culture media, DMEM, or RPMI). After 24 h, different concentrations of the diverse peptides (and inhibitors) were added for 3 h. Thirty MOI of the targeted lentiviral particles were added to the cells and the plates centrifuged for 90 min at 800×g, 20 °C. Three and six days later, this procedure (peptides/inhibitor and LV treatments) was repeated. On the tenth day, cell viability was analyzed either by MTT or by WST-1; the media was replaced by fresh media (100 μl per well) containing 1 mg/ml MTT, and the cells were incubated for 2–4 more hours. MTT-formazan crystals were dissolved by the addition of extraction solution (0.1 N HCl in absolute isopropanol). Absorbance at 570 nm and a reference wavelength of 690 nm was recorded on an automated microplate reader. For WST-1, media was replaced and WST-1 was added directly to the culture wells followed by incubation of 10–60 min at 37 °C. Plates were read by an automated microplate reader by measuring the absorbance of the dye with a wavelength of 450 nm and a reference wavelength of 630 nm."}, "H1975 lung cancer cells [7]": {"system": "H1975 lung cancer cells", "assay": "Microscopic observation of GFP incorporation", "type": "cell-based, human", "conditions": "30 MOI LV-CD24 and 25 µM INS with 50 µM Raltegravir; 24 h post-treatment", "procedure": "Fig. 2 The effect of IN-derived peptides on cell survival. A Schematic illustration of the treatment protocol. B Microscopic observation of the GFP incorporation inhibition by Raltegravir. H1975 lung cancer cells were exposed to 30 MOI LV-CD24 and 25 µM INS with or without the addition of 50 µM Raltegravir. Images were taken 24 h post-treatment. C 2000 Panc-1 (left) and H1975 (right) cells were seeded in 96-well plates and were treated with the different items as described. Cell survival was measured by the enzymatic WST-1 (left) and MTT assays (right). % Survival was calculated as the percentage of living cells remaining after treatment with respect to non-treated cells."}, "[8]": {"system": "CD24 expressing cancer cells", "type": "cell-based, human", "conditions": "abstract"}, "Panc-1 cells": {"system": "Panc-1 cells", "assay": "Cell survival after CD24-targeted lentivirus plus peptide, WST-1", "type": "cell-based, human", "conditions": "Raltegravir added to LV-CD24 plus INS or INR2", "procedure": "as §4"}, "[9]": {"conditions": "from 5 mg/mL sample (10 mg/ml stock into plasma 1:1), at 0 min, verified at 60 min, methanol precipitation, PTFE 0.45 µm filtration"}},
  "note": "Residues, ends and D or L forms follow the SMILES beside them.",
  "data": [
    {"compound": "O=P1(N(CCCl)CCCl)NCCCO1", "note": "(stereo not shown) [CP, cyclophosphamide monohydrate, reference compound]", "values": [
      {"measurement": "% Gaps", "setting": "CHO-WBL cells", "value": 4.0, "unit": "%"},
      {"measurement": "% Structural aberration without gaps", "setting": "CHO-WBL cells", "value": 47.0, "unit": "%"},
      {"measurement": "Cells with endoreduplication (%)", "setting": "CHO-WBL cells", "value": 3.0, "unit": "%"},
      {"measurement": "Cells with polyploidy (%)", "setting": "CHO-WBL cells", "value": 0.0, "unit": "%"},
      {"measurement": "Cytotoxicity (%)", "setting": "CHO-WBL cells; cell growth inhibition relative to negative control", "value": 50, "unit": "%"},
      {"measurement": "% Structural aberrant cells", "setting": "CHO-WBL cells; cells with only gaps not included, *p ≤ 0.05 Fisher's Exact test", "value": "35.0* %"}
    ]},
    {"compound": "CC(C)[C@H](NC(=O)[C@@H](NC(=O)[C@@H](NC(=O)[C@H](CO)NC(=O)[C@@H](NC(=O)[C@H](Cc1ccccc1)NC(=O)[C@H](CC(N)=O)NC(=O)[C@H](CO)NC(=O)CNC(=O)[C@@H](N)Cc1c[nH]c2ccccc12)[C@@H](C)O)[C@@H](C)O)[C@@H](C)O)C(=O)N[C@@H](CCCCN)C(=O)N[C@@H](C)C(=O)O", "note": "[INR] (H-WGSNFTSTTVKA-OH)", "values": [
      {"measurement": "Solubility", "setting": "[1]; % of 5 mg/mL sample", "value": 66.2, "unit": "%"},
      {"measurement": "Solubility", "setting": "[1]; from 5 mg/mL sample (10 mg/ml stock into PBS 1:1), methanol dilution, PTFE 0.45 µm filtration", "value": 3.31, "unit": "mg/mL"},
      {"measurement": "Solubility (in words)", "setting": "[1]; rat and human plasma", "value": "highly soluble"},
      {"measurement": "Stability", "setting": "[2]; both types of sera (rat and human plasma), for the entire 24 h", "value": 40, "unit": "%"},
      {"measurement": "Analyte Remaining %", "setting": "[2]; 0 h", "value": 40.9, "unit": "%"},
      {"measurement": "Concentration calculated from LC-MS data", "setting": "[2]; 0 h", "value": 2.05, "unit": "mg/mL"},
      {"measurement": "Analyte Remaining %", "setting": "[2]; 0.25 h", "value": 40.3, "unit": "%"},
      {"measurement": "Concentration calculated from LC-MS data", "setting": "[2]; 0.25 h", "value": 2.02, "unit": "mg/mL"},
      {"measurement": "Analyte Remaining %", "setting": "[2]; 0.5 h", "value": 45.3, "unit": "%"},
      {"measurement": "Concentration calculated from LC-MS data", "setting": "[2]; 0.5 h", "value": 2.27, "unit": "mg/mL"},
      {"measurement": "Analyte Remaining %", "setting": "[2]; 1 h", "value": 47.3, "unit": "%"},
      {"measurement": "Concentration calculated from LC-MS data", "setting": "[2]; 1 h", "value": 2.37, "unit": "mg/mL"},
      {"measurement": "Analyte Remaining %", "setting": "[2]; 2 h", "value": 39.2, "unit": "%"},
      {"measurement": "Concentration calculated from LC-MS data", "setting": "[2]; 2 h", "value": 1.96, "unit": "mg/mL"},
      {"measurement": "Analyte Remaining %", "setting": "[2]; 4 h", "value": 41.2, "unit": "%"},
      {"measurement": "Concentration calculated from LC-MS data", "setting": "[2]; 4 h", "value": 2.06, "unit": "mg/mL"},
      {"measurement": "Analyte Remaining %", "setting": "[2]; 8 h", "value": 38.3, "unit": "%"},
      {"measurement": "Concentration calculated from LC-MS data", "setting": "[2]; 8 h", "value": 1.91, "unit": "mg/mL"},
      {"measurement": "Analyte Remaining %", "setting": "[2]; 24 h", "value": 38.9, "unit": "%"},
      {"measurement": "Concentration calculated from LC-MS data", "setting": "[2]; 24 h", "value": 1.95, "unit": "mg/mL"},
      {"measurement": "Stability", "setting": "[2]; rat and human plasma, ~4 h incubation", "value": 40, "unit": "%"},
      {"measurement": "Solubility", "setting": "[3]; % of 5 mg/mL sample", "value": 42.6, "unit": "%"},
      {"measurement": "Solubility", "setting": "[3]; [9]", "value": 2.13, "unit": "mg/mL"},
      {"measurement": "Analyte Remaining %", "setting": "[4]; 0 h", "value": 41.8, "unit": "%"},
      {"measurement": "Concentration calculated from LC-MS data", "setting": "[4]; 0 h", "value": 2.09, "unit": "mg/mL"},
      {"measurement": "Analyte Remaining %", "setting": "[4]; 0.25 h", "value": 51.1, "unit": "%"},
      {"measurement": "Concentration calculated from LC-MS data", "setting": "[4]; 0.25 h", "value": 2.56, "unit": "mg/mL"},
      {"measurement": "Analyte Remaining %", "setting": "[4]; 0.5 h", "value": 34.3, "unit": "%"},
      {"measurement": "Concentration calculated from LC-MS data", "setting": "[4]; 0.5 h", "value": 1.71, "unit": "mg/mL"},
      {"measurement": "Analyte Remaining %", "setting": "[4]; 1 h", "value": 43.5, "unit": "%"},
      {"measurement": "Concentration calculated from LC-MS data", "setting": "[4]; 1 h", "value": 2.17, "unit": "mg/mL"},
      {"measurement": "Analyte Remaining %", "setting": "[4]; 2 h", "value": 43.6, "unit": "%"},
      {"measurement": "Concentration calculated from LC-MS data", "setting": "[4]; 2 h", "value": 2.18, "unit": "mg/mL"},
      {"measurement": "Analyte Remaining %", "setting": "[4]; 4 h", "value": 38.2, "unit": "%"},
      {"measurement": "Concentration calculated from LC-MS data", "setting": "[4]; 4 h", "value": 1.91, "unit": "mg/mL"},
      {"measurement": "Analyte Remaining %", "setting": "[4]; 8 h", "value": 35.3, "unit": "%"},
      {"measurement": "Concentration calculated from LC-MS data", "setting": "[4]; 8 h", "value": 1.76, "unit": "mg/mL"},
      {"measurement": "Analyte Remaining %", "setting": "[4]; 24 h", "value": 36.9, "unit": "%"},
      {"measurement": "Concentration calculated from LC-MS data", "setting": "[4]; 24 h", "value": 1.84, "unit": "mg/mL"},
      {"measurement": "Solubility", "setting": "[5]; % of 5 mg/mL sample", "value": 44.2, "unit": "%"},
      {"measurement": "Solubility", "setting": "[5]; [9]", "value": 2.21, "unit": "mg/mL"},
      {"measurement": "Effect on lung cancer cell viability", "setting": "H1975 lung cancer cells [6]", "value": "no effect"}
    ]},
    {"compound": "Cc1nnc(C(=O)NC(C)(C)c2nc(C(=O)NCc3ccc(F)cc3)c(O)c(=O)n2C)o1", "note": "[Raltegravir]", "values": [
      {"measurement": "Effect on cell death induced by LV plus peptide", "setting": "H1975 cells", "value": "successfully suppressed the observed cell death"},
      {"measurement": "Effect on GFP fluorescence of INS-treated cells", "setting": "H1975 lung cancer cells [7]", "value": "nearly eliminated"},
      {"measurement": "Effect on induction of apoptosis", "setting": "[8]", "value": "inhibited the induction of apoptosis"},
      {"measurement": "Effect on cell death induced by LV plus peptide", "setting": "Panc-1 cells", "value": "successfully suppressed the observed cell death"}
    ]}
  ]
}
